Test results from patent US8143227B2, “Azithromycin for treatment of skin disorders” (priority 2008, dated 2012).

Tests used:
[1] = tested on: acne; settings: 500 mg three times per week; Kapadia 2004; cited from earlier work
[2] = tested on: inflammatory acne; settings: 250 mg three times per week, cited from earlier work
[3] = tested on: Staphylococcus aureus; settings: Neu 1991; relative to P. acnes; cited from earlier work
[4] = Gastrointestinal side effects monitoring; assay type: in vivo, human; settings: 40, 80, or 120 mg/day; 42 days treatment plus 4 weeks after cessation
Text: The subjects of Example 1 were monitored for the presence of gastrointestinal adverse effects during the six weeks (42 days) of treatment with the daily low-dose azithromycin of the invention and for an additional 4 weeks (total of 70 days) following cessation of treatment.

Structure (SMILES): CC[C@H]1OC(=O)[C@H](C)[C@@H](O[C@H]2C[C@@](C)(OC)[C@@H](O)[C@H](C)O2)[C@H](C)[C@@H](O[C@@H]2O[C@H](C)C[C@H](N(C)C)[C@H]2O)[C@](C)(O)C[C@@H](C)CN(C)[C@H](C)[C@@H](O)[C@]1(C)O [Azithromycin, 9-deoxo-9a-aza-9a-methyl-9a-homoerythromycin A]
- subjects with adverse events [1]: 11%
- treatment of acne [1]: successful treatment
- cases of gastrointestinal discomfort ([2]; 21 subjects): 3 cases
- cases of vaginitis ([2]; 21 subjects): one
- subjects who experienced side effects ([2]; 21 subjects): 19%
- efficacy in treating lesions of inflammatory acne ([2]; Fernandez-Obregon 2000): as effective as other antibiotics tested
- MIC against Staphylococcus aureus [3]: higher than that for P. acnes
- gastrointestinal side effects [4]: no gastrointestinal side effects were reported
